Assay results: ChEMBL document CHEMBL1201862, “PubChem BioAssay data set” (2004)
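Briefly, cells in 96-well plates were exposed to five compound concentrations for 48 h, and endpoints were estimated by linear interpolation. GI50 marks 50% less growth.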 Active and inactive are the calls of the source. Cut-off read from the data, not from the text of the source: active = GI50 up to about 1.1 µM and inactive = higher.

Experiments:
Assay in all cases: NCI tumour cell line growth inhibition, 48 h
786-0 = system: 786-0
A498 = system: A498
A549 = system: A549
ACHN = system: ACHN
BT-549 = system: BT-549
DU-145 = system: DU-145
EKVX = system: EKVX
HCC 2998 = system: HCC 2998
HCT-116 = system: HCT-116
HCT-15 = system: HCT-15
HL-60 = system: HL-60
HOP-62 = system: HOP-62
HOP-92 = system: HOP-92
HT-29 = system: HT-29
Hs-578T = system: Hs-578T
IGROV-1 = system: IGROV-1
K562 = system: K562
KM12 = system: KM12
LOX IMVI = system: LOX IMVI
M14 = system: M14
MCF7 = system: MCF7
MDA-MB-231 = system: MDA-MB-231
MDA-MB-435 = system: MDA-MB-435
MDA-N = system: MDA-N
MOLT-4 = system: MOLT-4
NCI-H226 = system: NCI-H226
NCI-H460 = system: NCI-H460
NCI-H522 = system: NCI-H522
NCI/ADR-RES = system: NCI/ADR-RES
OVCAR-3 = system: OVCAR-3
OVCAR-4 = system: OVCAR-4
OVCAR-5 = system: OVCAR-5
OVCAR-8 = system: OVCAR-8
PC-3 = system: PC-3
RPMI-8226 = system: RPMI-8226
SF-268 = system: SF-268
SF-295 = system: SF-295
SF-539 = system: SF-539
SK-MEL-28 = system: SK-MEL-28
SK-MEL-2 = system: SK-MEL-2
SK-OV-3 = system: SK-OV-3
SN12C = system: SN12C
SNB-19 = system: SNB-19
SNB-75 = system: SNB-75
SW-620 = system: SW-620
T47D = system: T47D
TK-10 = system: TK-10
U-251 = system: U-251
UACC-257 = system: UACC-257
UACC-62 = system: UACC-62
UO-31 = system: UO-31
CAKI-1 = system: CAKI-1
CCRF-CEM = system: CCRF-CEM
COLO 205 = system: COLO 205
Malme-3M = system: Malme-3M
NCI-H23 = system: NCI-H23
RXF 393 = system: RXF 393
SK-MEL-5 = system: SK-MEL-5

OCC1OC(c2cccc3cc(O)c(O)cc23)CC1O (stereo unspecified)
GI50 (786-0): > 100 µM (inactive) | GI50 (A498): > 100 µM (inactive) | GI50 (A549): > 100 µM (inactive) | GI50 (ACHN): > 100 µM (inactive) | GI50 (BT-549): > 100 µM (inactive) | GI50 (DU-145): > 100 µM (inactive) | GI50 (EKVX): 45.4 µM (inactive) | GI50 (HCC 2998): > 100 µM (inactive) | GI50 (HCT-116): > 100 µM (inactive) | GI50 (HCT-15): > 100 µM | GI50 (HL-60): 42.3 µM (inactive) | GI50 (HOP-62): > 100 µM (inactive) | GI50 (HOP-92): > 100 µM (inactive) | GI50 (HT-29): > 100 µM (inactive) | GI50 (Hs-578T): > 100 µM (inactive) | GI50 (IGROV-1): 64 µM (inactive) | GI50 (K562): > 100 µM (inactive) | GI50 (KM12): > 100 µM (inactive) | GI50 (LOX IMVI): > 100 µM (inactive) | GI50 (M14): > 100 µM (inactive) | GI50 (MCF7): > 100 µM (inactive) | GI50 (MDA-MB-231): > 100 µM (inactive) | GI50 (MDA-MB-435): > 100 µM (inactive) | GI50 (MDA-N): > 100 µM (inactive) | GI50 (MOLT-4): > 100 µM (inactive) | GI50 (NCI-H226): 66.7 µM (inactive) | GI50 (NCI-H460): 80.7 µM (inactive) | GI50 (NCI-H522): > 100 µM (inactive) | GI50 (NCI/ADR-RES): > 100 µM (inactive) | GI50 (OVCAR-3): 94.8 µM (inactive) | GI50 (OVCAR-4): > 100 µM (inactive) | GI50 (OVCAR-5): > 100 µM (inactive) | GI50 (OVCAR-8): > 100 µM (inactive) | GI50 (PC-3): > 100 µM (inactive) | GI50 (RPMI-8226): > 100 µM (inactive) | GI50 (SF-268): 93.1 µM (inactive) | GI50 (SF-295): > 100 µM (inactive) | GI50 (SF-539): > 100 µM (inactive) | GI50 (SK-MEL-28): > 100 µM (inactive) | GI50 (SK-MEL-2): > 100 µM (inactive) | GI50 (SK-OV-3): > 100 µM (inactive) | GI50 (SN12C): > 100 µM (inactive) | GI50 (SNB-19): > 100 µM (inactive) | GI50 (SNB-75): > 100 µM (inactive) | GI50 (SW-620): > 100 µM (inactive) | GI50 (T47D): > 100 µM (inactive) | GI50 (TK-10): > 100 µM (inactive) | GI50 (U-251): > 100 µM (inactive) | GI50 (UACC-257): > 100 µM (inactive) | GI50 (UACC-62): > 100 µM (inactive) | GI50 (UO-31): > 100 µM (inactive)

N#Cc1cc(-c2nc3c(F)cccc3s2)ccc1N
GI50 (786-0): > 100 µM (inactive) | GI50 (A498): > 100 µM (inactive) | GI50 (A549): > 100 µM (inactive) | GI50 (ACHN): > 100 µM (inactive) | GI50 (BT-549): > 100 µM (inactive) | GI50 (CAKI-1): 46 µM (inactive) | GI50 (CCRF-CEM): 85.5 µM (inactive) | GI50 (COLO 205): 71.4 µM (inactive) | GI50 (DU-145): > 100 µM (inactive) | GI50 (EKVX): < 0.01 µM (active) | GI50 (HCT-116): > 100 µM (inactive) | GI50 (HCT-15): > 100 µM | GI50 (HL-60): > 100 µM (inactive) | GI50 (HOP-62): > 100 µM (inactive) | GI50 (HOP-92): 3.52 µM (inactive) | GI50 (HT-29): > 100 µM (inactive) | GI50 (Hs-578T): > 100 µM (inactive) | GI50 (IGROV-1): 6.1 µM (inactive) | GI50 (K562): > 100 µM (inactive) | GI50 (KM12): 65.3 µM (inactive) | GI50 (LOX IMVI): > 100 µM (inactive) | GI50 (M14): > 100 µM (inactive) | GI50 (MCF7): 0.133 µM (active) | GI50 (MDA-MB-231): > 100 µM (inactive) | GI50 (MDA-MB-435): 45.5 µM (inactive) | GI50 (MDA-N): 47.8 µM (inactive) | GI50 (MOLT-4): > 100 µM (inactive) | GI50 (Malme-3M): 88.9 µM (inactive) | GI50 (NCI-H226): > 100 µM (inactive) | GI50 (NCI-H23): > 100 µM (inactive) | GI50 (NCI-H460): 20.5 µM (inactive) | GI50 (NCI-H522): > 100 µM (inactive) | GI50 (NCI/ADR-RES): > 100 µM (inactive) | GI50 (OVCAR-3): 96.4 µM (inactive) | GI50 (OVCAR-4): > 100 µM (inactive) | GI50 (OVCAR-5): > 100 µM (inactive) | GI50 (OVCAR-8): > 100 µM (inactive) | GI50 (PC-3): > 100 µM (inactive) | GI50 (RPMI-8226): > 100 µM (inactive) | GI50 (RXF 393): > 100 µM (inactive) | GI50 (SF-268): > 100 µM (inactive) | GI50 (SF-295): > 100 µM (inactive) | GI50 (SF-539): > 100 µM (inactive) | GI50 (SK-MEL-5): 56.4 µM (inactive) | GI50 (SK-OV-3): > 100 µM (inactive) | GI50 (SN12C): > 100 µM (inactive) | GI50 (SNB-19): > 100 µM (inactive) | GI50 (SNB-75): > 100 µM (inactive) | GI50 (SW-620): > 100 µM (inactive) | GI50 (T47D): 0.912 µM (active) | GI50 (TK-10): 4.26 µM (inactive) | GI50 (U-251): > 100 µM (inactive) | GI50 (UACC-257): > 100 µM (inactive) | GI50 (UACC-62): > 100 µM (inactive) | GI50 (UO-31): > 100 µM (inactive)
